Data as given in PMC12668308, “A Novel Antimalarial Agent that Inhibits Protein Synthesis in Plasmodium falciparum” (Angewandte Chemie (International Ed. in English), 2025).

Columns and labels:
[1] = test system: mRNA translation in NF54 trophozoite-stage parasites; experiment: Surface sensing of translation (SUnSET) assay; format: cell-based, Plasmodium falciparum; settings: trophozoites 30–35 hpi; 31 at 3x, 50x, 100x IC50; 34 and pyrimethamine at 3x IC50
Method: To confirm the role of 31 as a translation inhibitor, the surface sensing of translation (SUnSET) assay was employed. This involves incubating the culture with a translation inhibitor, puromycin, a structural analogue of aminoacyl tRNA. Puromycin is incorporated in the nascent polypeptide chain and prevents further elongation. When puromcyin is used in sub‐lethal concentrations, incorporation of puromycin in neosynthesized protein correlates with the levels of mRNA translation (Figure 3c, lane2).^[ [27] ^] […] This trend was further confirmed by the quantified western blot signals (Figures 3d and S4C) that are consistent with the iSPP profiling results.
SUnSET: The SUnSET assay was done as described in. ^[27^]Tightly synchronized NF54 wild type parasites were treated with the compounds for 4h at 30-35 hpi (trophozoite stage). The following compounds and amounts used were: cycloheximide (3xIC50, 1,2 µM; Calbiochem), pyrimethamine (3xIC50, 21 nM; MedChemExpress), 34 (3xIC50, 12 µM), and 31 (3xIC50, 12 nM; 50xIC50, 200 nM; 100xIC50, 400 nM). Parasites were incubated with 1 µg mL^-1 (Sigma P8833) for 1 h at 37 °C and saponin lysis was performed.
Saponin lysis and Western blot: Saponin lysis was done on infected RBC at ~5% parasitemia to lyse erythrocytes. Parasite cultures were centrifuged at 1,200 g for 5 min at room temperature. Once the supernatant was discarded, 10 volumes of ice-cold 0.1% (w/v) saponin (Calbiochem 558255, dissolved in PBS, and filtered with 0,22) was added, incubated on ice for 10 min and centrifuged for 2,272 g for 15 min at 4 °C. […] The membrane was washed 3 times in PBS-T (3 min incubation in each washing step) and the signal was detected using the chemiluminescent substrate SuperSignal West Pico Plus (Thermo Scientific, REF 34580) and the imaging system Vilber Fusion FX7 Edge 17.10 SN. Quantification of Western blot signal was done by measuring the integrated density of each lane using ImageJ analysis software (version 1.54p). […]

[2] = test system: Uncharacterized protein (W7JXH4); experiment: iSPP profiling, P. falciparum lysate; format: binding, Plasmodium falciparum
Method: P. falciparum NF54 lysates were extracted as described in ^[26^] . The parasite asynchronous culture was extracted once 3-5% parasitemia was reached. Saponin lysis was done as described in 2.2.10. Once the parasite pellet was obtained, 2.5 volumes of ice-cold lysis buffer (50 mM Tris/HCl pH 7.5 (Avantor), 5% glycerol (Sigma-Aldrich), 150 mM NaCl (Carl Roth), 1.5 mM MgCl2 (Sigma-Aldrich), 1 mM DTT (Carl Roth), 0.8% IGEPAL CA-630 (Sigma-Aldrich), 1X Halt Protease and Phosphatase Inhibitor-Cocktails EDTA-free (Thermo Fisher Scientific)) was added to the parasite pellet. The lysate solution was subjected to three cycles of flash freeze-thaw with liquid nitrogen and ddH2O at RT. The lysates were centrifuged at 20,000 g for 20 minutes at 4 °C. The soluble protein fraction (supernatant) was collected and the protein content was quantified using the BCA assay (Pierce™ BCA Protein Assay Kit, Thermo Fisher Scientific). The lysate was stored at -80 °C until further use.
The P. falciparum lysate was thawed on ice and diluted to 0.8 mg/mL. […] Subsequently, the samples were incubated at room temperature for 30 minutes using a rotating mixer. After distribution into a 96-well plate, the samples were treated with increasing concentrations of A.E.A. (v/v) ranging from 14% to 28% (14, 16, 18, 20, 22, 24, 26, and 28%). Following a 20-minute incubation at 37°C with shaking at 750 rpm, the samples were centrifuged at 4400 g for 35 minutes to remove precipitated proteins. The soluble fractions were then pooled in equal volumes into a single sample using the Bravo Automated Liquid Handling Platform. The pooled samples were subsequently prepared for LC-MS/MS analysis.
The raw LFQ-DIA intensity values of biological replicates across all conditions were normalized to the median abundance using Excel. The normalized values were then log2 transformed in Perseus (v2.0.10.0).^[58^] Missing values were imputed from a normal distribution (width 0.3, down shift 1.5), and p-values were obtained using a two-sample t-test over replicates with a permutation-based false discovery rate correction (FDR 0.05). Volcano plots were generated in RStudio using the EnhancedVolcano package (v. 1.20.0), ^[59^] plotting proteins by statistical significance (y-axis: –Log10 p-value) versus the magnitude of change (x-axis: log2 fold change of protein intensities for each compound condition relative to the vehicle control). The heatmap was generated in Perseus (v2.0.10.0). Dose-dependent curves were generated using normalized protein intensity values, expressed as a ratio to the vehicle control. Plots were created in GraphPad Prism (v8.3.0) using a nonlinear regression model.

Compound	mRNA translation (puromycin incorporation) [1]	log2FC ([2]; 10 µM)	log2FC ([2]; 50 µM)	log2FC ([2]; 100 µM compound 31)	log2FC ([2]; 10^-2 µM)	log2FC ([2]; 10^-3 µM)	log2FC ([2]; 100 µM compound 34)
CN1CCN(Cc2ccc(O)c(NC(=O)c3cccc(Oc4cc(C(F)(F)F)ccn4)c3)c2)CC1 [Compound 31, N-(2-hydroxy-5-((4-methylpiperazin-1-yl)methyl)phenyl)-3-((4-(trifluoromethyl)pyridin-2-yl)oxy)benzamide]	concentration‐dependent reduction in translation	1.06	0.61	0.70	0.54	0.61	
O=C(Nc1cc(CN2CCOCC2)ccc1F)c1cccc(Oc2cc(C(F)(F)F)ccn2)c1 [Compound 34, N-(2-Fluoro-5-(morpholinomethyl)phenyl)-3-((4-(trifluoromethyl)pyridin-2-yl)oxy)benzamide]	did not reduce mRNA translation						0.3904
